For experiment [1], the target named is Human recombinant BAG3 (rBAG3) protein full length (Homo sapiens, UniProt O95817). Put plainly: SPR assay on recombinant full-length BAG3. The note with it: for rBAG3 KD ± SD: SPR, full-length protein, 25 °C, n.b. = no binding.
Method: (§9) A surface plasmon resonance (SPR) assay [18], using a recombinant BAG3 protein, was performed and, to explore the potential selectivity of our potential binders, the affinity for BAG4—the most closely BAG3 related protein—was also evaluated. Moreover, the binding affinity towards the BAG3BD domain was also assessed.
(§10) The SPR analysis were performed on Biacore 3000^TM equipped with a research-grade CM5 sensor chip (GE Healthcare^TM, Milan, Italy). Human recombinant BAG3 (rBAG3) protein was purchased from MyBioSource© (San Diego, CA, USA), BAG3 domain (rBAG3BD) was purchased from ARETA International S.r.l. […] The proteins were coupled to the surface of a CM5 sensor chip using standard amine-coupling protocols, according to the manufacturer’s instructions. Three separates recombinant rBAG proteins surfaces and one unmodified reference surface were prepared for simultaneous analyses. rBAG proteins (BAG3 and BAG4) and rBAG3BD (100 µg mL^−1 in 10 mM CH3COONa, pH 4.5) were immobilized on the sensor chip surface at a flow rate of 5 µL min^−1 to obtain densities of 5–9 kRU. […] For each molecule, a six-point concentration series was conducted in triplicate (0-0.25-1-10-20-100 µM). SPR (Surface Plasmon Resonance) experiments were performed at 25 °C, using a flow rate of 10 µL min^−1, with 60-s monitoring of association and 300-s monitoring of dissociation. Sensorgram elaborations were performed using the BIAevaluation software (GE Healthcare^TM, Milan, Italy). provided by GE Healthcare^TM. Simple interactions were suitably fitted to a single-site bimolecular interaction model (A + B = AB), yielding a single KD.
For a further experiment, the target named is T1, BAG3 domain (rBAG3BD) (Homo sapiens, UniProt O95817).
T1 sequence (O95817 421-498 limits assumed): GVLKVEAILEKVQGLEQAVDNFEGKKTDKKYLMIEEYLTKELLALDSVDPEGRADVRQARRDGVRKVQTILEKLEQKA
Put plainly: SPR assay on isolated BAG3 BAG domain. The note with it: for rBAG3BD KD ± SD: SPR, isolated BAG domain, 25 °C, n.b. = no binding.

In experiment [2] the test system is human melanoma cell line (A375). Description: MTT cell viability assay, A375. The class given is cell-based. The note with it: 5–50 µM; for IC50: Homo sapiens, A-375, 48 h, read-out: A375 Cell Line IC50 ± SD; for A375 Cell Line IC50 ± SD: 48 h. The procedure:
(§1) Firstly, the antiproliferative activity of lead compound 1, 2 and 5–9 against selected human cell lines was assessed. No effect on human PHA (Phytohaemagglutinin)-stimulated proliferating non-tumor human cell line (PMBC) has been detected for compound 1 tested at different concentrations (10–50 μM) after 72 h of exposure. In more detail, all the synthesized compounds have been tested on human melanoma cancer A375 and HeLa cancer cell lines, which are known to overexpress BAG3 protein, by an MTT cell viability assay, using different concentrations (5–50 μM). The IC50 values have been calculated after 48 h of treatment with test compounds (Table 2).
(§2) Cell lines of human cervical carcinoma (HeLa) and human malignant melanoma (A375) were cultured in Dulbecco’s modified Eagle’s medium containing 10% fetal bovine serum, supplemented with 100 U/mL each of penicillin and streptomycin, and 2 mM/L glutamine and were grown at 37 °C under 5% CO2 air humidified atmosphere.
(§3) Cell viability was evaluated using a colorimetric assay based on MTT ((3-(4,5-dimethylthiazol-2-yl)-2,5-diphenyltetrazolium bromide)) assay. Cells were grown in 96-well tissue culture plates (3,5 × 10^3 cells/well) and after 24 h, were treated with different concentrations of 1, 2 and 5–9 (50, 25, 10, and 5 µM) and incubation was performed for 48 h at 37 °C in an atmosphere containing 5% CO2. At the end of treatment, the plates were centrifuged at 1200 rpm for 5 min, the medium was removed and 100 μL of MTT (1 mg/mL) were added to each well, and cells were incubated at 37 °C for the time necessary to allow the formation of purple formazan precipitate. The solution was then removed from each well, and the formazan crystals within the cells were dissolved with 100 μL of DMSO [31]. The optical density (OD) of each well was measured with a microplate spectrophotometer (Multiskan Spectrum Thermo Electron Corporation reader) (Thermo Fisher Scientific, Rome, Italy) equipped with a 620-nm filter. Cell mortality was calculated as: % mortality = 100 − [100 × (OD treated/OD control)] [32].

Experiment [3] has as its system human cervical adenocarcinoma cell line (HeLa). Put plainly: MTT cell viability assay, HeLa. The class given is cell-based. The note with it: 48 h, 5–50 µM; for IC50: Homo sapiens, HeLa, read-out: HeLa Cell Line IC50 ± SD. As for the experimental part: as §1, §2, §3
Experiment [4] has as its target T2, human recombinant BAG4 protein (Homo sapiens, UniProt O95429).
T2 sequence (O95429 1-457): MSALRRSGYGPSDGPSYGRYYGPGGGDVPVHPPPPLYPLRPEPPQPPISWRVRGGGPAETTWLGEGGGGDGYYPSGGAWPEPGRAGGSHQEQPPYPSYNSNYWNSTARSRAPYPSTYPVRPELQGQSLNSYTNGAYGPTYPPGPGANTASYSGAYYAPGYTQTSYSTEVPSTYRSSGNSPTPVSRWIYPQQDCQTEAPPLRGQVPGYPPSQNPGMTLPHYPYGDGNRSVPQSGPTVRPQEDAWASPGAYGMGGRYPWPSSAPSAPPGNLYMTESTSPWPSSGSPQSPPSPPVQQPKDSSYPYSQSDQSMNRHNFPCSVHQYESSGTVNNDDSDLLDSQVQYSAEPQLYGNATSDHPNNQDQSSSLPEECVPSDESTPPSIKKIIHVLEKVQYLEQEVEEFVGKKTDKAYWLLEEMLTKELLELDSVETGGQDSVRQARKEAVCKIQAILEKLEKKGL
Put plainly: SPR assay on BAG4 (selectivity). Particulars: 25 °C, n.b. = no binding.
Method: as §9, §10

In the next experiment the test system is caspase 3. Description: Caspase 3 level by flow cytometry in HeLa cells. The experiment is classed as cell-based, human. The note with it: 5-10-25 μM, 48 h. The procedure: (§4) Furthermore, the expression of caspases, the key mediators of programmed cells death, was examined in HeLa cells after the treatment with compound 6.
(§5) Cells were plated into 12-well plated (2 × 10^4 cells/well) and after 24 h were treated with 6 (50-25-10-5 µM) for 48 h to assess caspase 3 and caspase 9 levels. Cells were collected, washed with PBS, then incubated in fixing buffer (containing 4% formaldehyde, 0.1% NaN3, and 2% FBS in PBS) for 20 min and then permeabilized with fix perm solution (fixing buffer containing 0.1% Triton X) for 30 min. Afterward, anti-caspase 3 or anti-caspase 9 antibodies were added for a further 30 min. Cells were then incubated with anti-rabbit Texas Red antibody as a secondary antibody for 1 h at 4 °C. Cell fluorescence was evaluated using a fluorescence-activated cell sorter (FACSscan; Becton Dickinson, Milan, Italy) and analyzed with the Cell Quest software (4.0, Becton Dickinson, North Ryde, NSW, Australia). Data were shown as a percentage of positive cells.
(§6) Figure 5 (a) Caspase 3 and (b) caspase 9 expressions were detected by flow cytometric analysis. HeLa cells were treated with 6 (5-10-25 μM) for 48 h. Results are expressed as mean ± S.E.M. from at least three independent experiments each performed in duplicate. Data were analyzed by Student’s t-test. *** p < 0.0001 vs. non-treated.

Another experiment concerns caspase 9. Description: Caspase 9 level by flow cytometry in HeLa cells. The class given is cell-based, human. Particulars: 5-10-25 μM, 48 h. As for the experimental part: as §4, §5, §6
For another experiment, the system named is HeLa cells. Description: Apoptosis and cell cycle analysis by PI staining and flow cytometry, HeLa. The experiment is classed as cell-based, human. Particulars: 5-10-25 μM, 48 h. As for the experimental part: (§7) The cells were incubated for 48 h with 1 and 6 at concentrations 5-10-25μM.
(§8) The effect of compound 1 and 6 on cell death was analyzed by propidium iodide (PI) (Merck, Darmstadt, Germany) incorporation in permeabilized cells and flow cytometry. Briefly, cells were plated at a density of 2 × 10^4 cells/well in a 24-well plate. After 24 h, 1 and 6 (25-10-5 μM) were added for 48 h. Cells were washed twice with PBS and incubated in 500μL of a solution containing 0.1% Triton X-100, 0.1% sodium citrate, and […] propidium iodide (PI), at 4 °C for 30 min in the dark. The PI-stained cells were subsequently analyzed by flow cytometry by FACSCalibur flow cytometer (Becton Dickinson, Milan, Italy) using CellQuest software (4.0, Becton Dickinson, North Ryde, NSW, Australia). Results are expressed as the percentage of cells in the hypodiploid region. Cellular debris were excluded from the analysis by raising the forward scatter threshold and the DNA content of the nuclei was registered on a logarithmic scale. Cell cycle profiles were evaluated by DNA staining with a PI solution using a flow cytometer. Results from 5000 events per sample were collected, and the relative percentage of the cells in G0/G1, S, G2/M, and sub-G0/G1 phases of the cell cycle was determined using the ModFit LT version 3.3 analysis software (BD Biosciences, North Ryde, NSW, Australia).
Figure 4 Cell cycle analysis: (a) DNA content and (b) hypodiploid nuclei, with propidium iodide staining, were evaluated by flow cytometric assay. HeLa cells were treated with 6 (5-10-25 μM) for 48 h. Results are expressed as mean ± S.E.M. of three independent experiments each performed in duplicate. Data were analyzed by Student’s t-test. * p < 0.05 and ** p < 0.005 vs. non-treated.

For the next experiment, the system named is A375 cells. Put plainly: Apoptosis and cell cycle analysis by PI staining and flow cytometry, A375. The class given is cell-based, human. The note with it: 5-10-25 μM, 48 h. As for the experimental part:
as §7, §8
Figure 3 Cell cycle analysis: (a) DNA content and (b) hypodiploid nuclei, with propidium iodide staining, were evaluated by flow cytometric assay. A375 cells were treated respectively with 1 or 6 (both 5-10-25 μM) for 48 h. Results are expressed as mean ± S.E.M. of three independent experiments, each performed in duplicate. Data were analyzed by Student’s t-test. * p < 0.05 and ** p < 0.005 vs. non-treated.

In another experiment the test system is BAG3. Description: BAG3 expression by Western blotting in HeLa cells. The class given is cell-based, human. The note with it: 5-10-25 μM, 48 h. The procedure:
Figure 6 HeLa cells were treated with 6 (5-10-25 μM) for 48 h. BAG3 expression was detected by Western blotting. Tubulin protein expression was used as a loading control. Results are expressed as mean ± S.E.M. from at least three independent experiments each performed in duplicate. Data were analyzed by Student’s t test vs. non-treated.

SMILES strings stand for the structures. A value given as a limit tells only on which side of the number the result lay.

Chain of Human recombinant BAG3 (rBAG3) protein full length (O95817 whole entry, the tested form may be a part): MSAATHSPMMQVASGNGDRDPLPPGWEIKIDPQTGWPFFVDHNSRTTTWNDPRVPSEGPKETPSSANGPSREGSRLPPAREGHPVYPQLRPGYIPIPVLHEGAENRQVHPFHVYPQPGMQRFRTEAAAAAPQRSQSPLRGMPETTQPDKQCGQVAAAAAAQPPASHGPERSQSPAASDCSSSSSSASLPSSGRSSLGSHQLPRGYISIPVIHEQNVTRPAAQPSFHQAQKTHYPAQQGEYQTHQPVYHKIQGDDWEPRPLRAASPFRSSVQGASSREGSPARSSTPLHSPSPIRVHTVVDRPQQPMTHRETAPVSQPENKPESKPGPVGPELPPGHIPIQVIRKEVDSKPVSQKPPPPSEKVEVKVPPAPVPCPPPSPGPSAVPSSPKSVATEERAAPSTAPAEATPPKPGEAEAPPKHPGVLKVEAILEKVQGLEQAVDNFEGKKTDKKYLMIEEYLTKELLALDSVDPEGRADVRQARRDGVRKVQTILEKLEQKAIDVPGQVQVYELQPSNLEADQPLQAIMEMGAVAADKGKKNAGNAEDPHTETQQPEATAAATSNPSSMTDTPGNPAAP
Method for BAG3 domain (rBAG3BD): as §9, §10

As for `COC(=O)CN1C(=O)S/C(=C\c2ccc(O)c(O)c2)C1=O` [Compound 2, (Z)-methyl 2-(5-(3,4-dihydroxybenzylidene)-2,4-dioxothiazolidin-3-yl) acetate], the Kd in experiment [1] was 0.115 ± 0.0014 µM. On BAG3 domain (rBAG3BD), the “rBAG3BD KD ± SD” value is on record as “n.b”. In addition, the IC50 was > 50 µM in experiment [2] and 27.3 ± 1.2 µM in experiment [3]. In [4], the “rBAG4 KD ± SD” value is recorded as “n.b”.
`CCOC(=O)CN1C(=O)S/C(=C\c2cc(O)cc(O)c2)C1=O` [Compound 3, (Z)-ethyl 2-(5-(3,5-dihydroxybenzylidene)-2,4-dioxothiazolidin-3-yl) acetate]: the “rBAG3 KD ± SD” value in experiment [1] is on record as “n.b”.
On the same count and under the same terms, next, `COC(=O)CN1C(=O)S/C(=C\c2cc(O)cc(O)c2)C1=O` [Compound 4, (Z)-methyl 2-(5-(3,5-dihydroxybenzylidene)-2,4-dioxothiazolidin-3-yl) acetate]: “n.b”.
For the molecule `O=C(CN1C(=O)S/C(=C\c2cc(O)cc(O)c2)C1=O)N1CCOCC1` [Compound 5, (Z)-5-(3,5-dihydroxybenzylidene)-3-(2-morpholino-2-oxoethyl) thiazolidine-2,4-dione], in experiment [2], the “A375 Cell Line IC50 ± SD” value was “micromolar range” and the IC50 came to 25.5 ± 1.1 µM. Besides, in experiment [3], the “HeLa Cell Line IC50 ± SD” value was “micromolar range” and the half-maximal inhibitory concentration (IC50) stood at 30 ± 1.3 µM. Besides, the “rBAG4 KD ± SD” value in [4] was “n.b”.
Regarding `CCOC(=O)CN1C(=O)S/C(=C\c2ccc(N(CCO)CCO)cc2)C1=O` [Compound 6, (Z)-ethyl 2-(5-(4-(bis(2-hydroxyethyl)amino)benzylidene)-2,4-dioxothiazolidin-3-yl) acetate], the Kd in experiment [1] was 0.0063 ± 0.0003 µM. The affinity on BAG3 domain (rBAG3BD), expressed as Kd, was 0.0276 ± 0.0019 µM. In addition, the “caspase 3 levels” value with caspase 3 was “significant and dose-dependent activation”. In experiment [2], the “A375 Cell Line IC50 ± SD” value is on record as “micromolar range” and the IC50 was found to be 19.4 ± 1.2 µM. Moreover, in the experiment with caspase 9, the “caspase 9 levels” value was “significant and dose-dependent activation”. Further, in the experiment with HeLa cells, the “apoptotic response (hypodiploid nuclei), HeLa” value is reported as “significant increase of the apoptotic response in a dose-dependent manner” and the “cell cycle distribution (G2 phase), HeLa” value is listed as “dose-dependent accumulation in the G2 phase”. In addition, in the experiment on A375 cells, the “apoptotic response (hypodiploid nuclei), A375” value is recorded as “significant increase of the apoptotic response in a dose-dependent manner” and the “cell cycle distribution (G2 phase), A375” value is “dose-dependent accumulation in the G2 phase”. In addition, in experiment [3], the “HeLa Cell Line IC50 ± SD” value is reported as “micromolar range” and the IC50 amounted to 18.7 ± 0.9 µM. For the same molecule, the BAG3 expression result with BAG3 is listed as “expression decrease of BAG3”. The “rBAG4 KD ± SD” value in experiment [4] was “n.b”.
For the molecule `COC(=O)CN1C(=O)S/C(=C\c2ccc(N(CCO)CCO)cc2)C1=O` [Compound 7, (Z)-methyl 2-(5-(4-(bis(2-hydroxyethyl)amino)benzylidene)-2,4-dioxothiazolidin-3-yl) acetate], the dissociation constant Kd in experiment [1] was found to be 0.0531 ± 0.0091 µM; at BAG3 domain (rBAG3BD) it was 0.0457 ± 0.0017 µM. The half-inhibitory concentration (IC50) in [2] was > 50 µM; in experiment [3] it was 49.4 ± 1.4 µM. Further, the “rBAG4 KD ± SD” value in experiment [4] is “n.b”.
As to `CCOC(=O)CN1C(=O)S/C(=C\c2ccc(-c3ccc(C#N)cc3)cn2)C1=O` [Compound 8, (Z)-ethyl 2-(5-((5-(4-cyanophenyl)pyridin-2-yl)methylene)-2,4-dioxothiazolidin-3-yl) acetate], in experiment [1], the dissociation constant Kd turned out to be 0.144 ± 0.0015 µM. On BAG3 domain (rBAG3BD), the “rBAG3BD KD ± SD” value is listed as “n.b”. For the same molecule, in [2], the “A375 Cell Line IC50 ± SD” value is on record as “micromolar range” and the IC50 came out at 23.2 ± 1 µM. In experiment [3], the “HeLa Cell Line IC50 ± SD” value was “micromolar range” and the half-maximal inhibitory concentration (IC50) was 25.9 ± 0.8 µM. Also, the “rBAG4 KD ± SD” value in [4] is given as “n.b”.
As for `COC(=O)CN1C(=O)S/C(=C\c2ccc(-c3ccc(C#N)cc3)cn2)C1=O` [Compound 9, (Z)-methyl 2-(5-((5-(4-cyanophenyl)pyridin-2-yl)methylene)-2,4-dioxothiazolidin-3-yl) acetate], the dissociation constant Kd in experiment [1] came out at 0.0247 ± 0.0018 µM. Also, at BAG3 domain (rBAG3BD), the Kd was determined as 0.0224 ± 0.0007 µM. In addition, in experiment [2], the “A375 Cell Line IC50 ± SD” value is “micromolar range” and the IC50 worked out at 28.4 ± 0.9 µM. In experiment [3], the “HeLa Cell Line IC50 ± SD” value is “micromolar range” and the IC50 was found to be 31.3 ± 1 µM. Further, in experiment [4], the “rBAG4 KD ± SD” value is reported as “n.b”.

The values above are taken from article PMC8839660, “Structural Refinement of 2,4-Thiazolidinedione Derivatives as New Anticancer Agents Able to Modulate the BAG3 Protein” (Molecules, 2022).
